Columns and labels:
barnyardgrass = test: Test B preemergence/postemergence greenhouse plant response rating 0 to 10; type: in vivo, Echinochloa crus-galli; details: 0 to 10 scale
Summary of the method: (§1)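 Both application timings were run together: seeds got compound preemergence, and established seedlings (two to eighteen cm) got it postemergence. Non-phytotoxic solvent carried the chemical. Ratings are visual, versus controls, at twelve to sixteen days.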

blackgrass = test: as above; type: in vivo, Alopecurus myosuroides; details: 0 to 10 scale
Summary of the method: as §1

crabgrass = test: as above; type: in vivo, Digitaria spp.; details: 0 to 10 scale
Summary of the method: as §1

giant foxtail = test: as above; type: in vivo, Setaria faberii; details: 0 to 10 scale
Summary of the method: as §1

rape = test: as above; type: in vivo, Brassica napus; details: 0 to 10 scale
Summary of the method: as §1

purple nutsedge = test: as above; type: in vivo, Cyperus rotundus; details: 0 to 10 scale
Summary of the method: as §1

corn = test: Test C preemergence/postemergence greenhouse plant response rating 0 to 100; type: in vivo, Zea mays; details: for Plant response rating, Corn: 62 g/ha, 0 to 100 scale
Summary of the method: (§2)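 Compounds in non-phytotoxic solvent went onto sandy loam before emergence (seeded one day earlier) or onto plants at the one-to-four leaf stage. Duck salad was treated via flood water (~2.5 cm, maintained) over silt loam.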

morningglory = test: as above; type: in vivo, Ipomoea hederacea; details: for Plant response rating, Morningglory: 62 g/ha, 0 to 100 scale
Summary of the method: as §2

wheat = test: as above; type: in vivo, Triticum aestivum
Summary of the method: as §2

wild buckwheat = test: as above; type: in vivo, Polygonum convolvulus
Summary of the method: as §2

wild oat = test: as above; type: in vivo, Avena fatua
Summary of the method: as §2

rice = test: Test C flood test plant response rating 0 to 100; type: in vivo, Oryza sativa
Summary of the method: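 Compounds in non-phytotoxic solvent applied preemergence to sandy loam one day after planting, postemergence at the 1–4 leaf stage, or to ~2.5 cm floodwater over silt loam.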

[1] = POSTEMERGENCE, 62 g/ha, 0 to 100 scale

CC(C)Oc1cc(-c2nn3c(c2Br)CCCC3)c(F)cc1Cl [Compound 38]
Plant response rating, Barnyardgrass (barnyardgrass; POSTEMERGENCE, Rate 50 g/ha): 6 | Plant response rating, Barnyardgrass (barnyardgrass; POSTEMERGENCE, Rate 200 g/ha): 8 | Plant response rating, Barnyardgrass (barnyardgrass; PREEMERGENCE, Rate 50 g/ha): 0 | Plant response rating, Barnyardgrass (barnyardgrass; Rate 200 g/ha, PREEMERGENCE): 1 | Plant response rating, Blackgrass (blackgrass; POSTEMERGENCE, Rate 50 g/ha): 3 | Plant response rating, Blackgrass (blackgrass; POSTEMERGENCE, Rate 200 g/ha): 7 | Plant response rating, Blackgrass (blackgrass; PREEMERGENCE, Rate 50 g/ha): 1 | Plant response rating, Blackgrass (blackgrass; Rate 200 g/ha, PREEMERGENCE): 1 | Plant response rating, Crabgrass (crabgrass; POSTEMERGENCE, Rate 50 g/ha): 5 | Plant response rating, Crabgrass (crabgrass; POSTEMERGENCE, Rate 200 g/ha): 6 | Plant response rating, Crabgrass (crabgrass; PREEMERGENCE, Rate 50 g/ha): 0 | Plant response rating, Crabgrass (crabgrass; Rate 200 g/ha, PREEMERGENCE): 8 | Plant response rating, Giant foxtail (giant foxtail; POSTEMERGENCE, Rate 50 g/ha): 5 | Plant response rating, Giant foxtail (giant foxtail; PREEMERGENCE, Rate 50 g/ha): 2 | Plant response rating, Giant foxtail (giant foxtail; Rate 200 g/ha, POSTEMERGENCE): 7 | Plant response rating, Giant foxtail (giant foxtail; Rate 200 g/ha, PREEMERGENCE): 9 | Plant response rating, Rape (rape; POSTEMERGENCE, Rate 50 g/ha): 8 | Plant response rating, Rape (rape; PREEMERGENCE, Rate 50 g/ha): 8 | Plant response rating, Rape (rape; Rate 200 g/ha, POSTEMERGENCE): 10 | Plant response rating, Rape (rape; Rate 200 g/ha, PREEMERGENCE): 8 | Plant response rating, Nutsedge (purple nutsedge; POSTEMERGENCE, Rate 50 g/ha): 3 | Plant response rating, Nutsedge (purple nutsedge; PREEMERGENCE, Rate 50 g/ha): 0 | Plant response rating, Nutsedge (purple nutsedge; Rate 200 g/ha, POSTEMERGENCE): 4 | Plant response rating, Nutsedge (purple nutsedge; Rate 200 g/ha, PREEMERGENCE): 0 | Plant response rating, Corn (corn; POSTEMERGENCE): 50 | Plant response rating (0 to 100), Corn (corn; POSTEMERGENCE, Rate 1 g/ha): 10 | Plant response rating, Corn (corn; PREEMERGENCE): 0 | Plant response rating (0 to 100), Corn (corn; PREEMERGENCE, Rate 1 g/ha): 0 | Plant response rating (0 to 100), Corn (corn; PREEMERGENCE, Rate 4 g/ha): 0 | Plant response rating (0 to 100), Corn (corn; Rate 4 g/ha, POSTEMERGENCE): 20 | Plant response rating (0 to 100), Corn (corn; Rate 16 g/ha, POSTEMERGENCE): 40 | Plant response rating (0 to 100), Corn (corn; Rate 16 g/ha, PREEMERGENCE): 0 | Plant response rating, Morningglory (morningglory; POSTEMERGENCE): 95 | Plant response rating (0 to 100), Morningglory (morningglory; POSTEMERGENCE, Rate 1 g/ha): 20 | Plant response rating (0 to 100), Morningglory (morningglory; POSTEMERGENCE, Rate 4 g/ha): 30 | Plant response rating, Morningglory (morningglory; PREEMERGENCE): 20 | Plant response rating (0 to 100), Morningglory (morningglory; PREEMERGENCE, Rate 1 g/ha): 0 | Plant response rating (0 to 100), Morningglory (morningglory; PREEMERGENCE, Rate 4 g/ha): 0 | Plant response rating (0 to 100), Morningglory (morningglory; Rate 16 g/ha, POSTEMERGENCE): 95 | Plant response rating (0 to 100), Morningglory (morningglory; Rate 16 g/ha, PREEMERGENCE): 0 | Plant response rating, Wheat (wheat; [1]): 50 | Plant response rating (0 to 100), Wheat (wheat; POSTEMERGENCE, Rate 1 g/ha): 0 | Plant response rating (0 to 100), Wheat (wheat; POSTEMERGENCE, Rate 4 g/ha): 20 | Plant response rating (0 to 100), Wheat (wheat; PREEMERGENCE, Rate 1 g/ha): 0 | Plant response rating (0 to 100), Wheat (wheat; PREEMERGENCE, Rate 4 g/ha): 0 | Plant response rating (0 to 100), Wheat (wheat; Rate 16 g/ha, POSTEMERGENCE): 30 | Plant response rating (0 to 100), Wheat (wheat; Rate 16 g/ha, PREEMERGENCE): 0 | Plant response rating, Wild buckwheat (wild buckwheat; [1]): 100 | Plant response rating (0 to 100), Wild buckwheat (wild buckwheat; POSTEMERGENCE, Rate 1 g/ha): 40 | Plant response rating (0 to 100), Wild buckwheat (wild buckwheat; POSTEMERGENCE, Rate 4 g/ha): 100 | Plant response rating (0 to 100), Wild buckwheat (wild buckwheat; PREEMERGENCE, Rate 1 g/ha): 0 | Plant response rating (0 to 100), Wild buckwheat (wild buckwheat; PREEMERGENCE, Rate 4 g/ha): 0 | Plant response rating (0 to 100), Wild buckwheat (wild buckwheat; Rate 16 g/ha, POSTEMERGENCE): 100 | Plant response rating (0 to 100), Wild buckwheat (wild buckwheat; Rate 16 g/ha, PREEMERGENCE): 20 | Plant response rating, Wild oat (wild oat; [1]): 50 | Plant response rating (0 to 100), Wild oat (wild oat; POSTEMERGENCE, Rate 1 g/ha): 0 | Plant response rating (0 to 100), Wild oat (wild oat; POSTEMERGENCE, Rate 4 g/ha): 10 | Plant response rating (0 to 100), Wild oat (wild oat; PREEMERGENCE, Rate 1 g/ha): 0 | Plant response rating (0 to 100), Wild oat (wild oat; PREEMERGENCE, Rate 4 g/ha): 0 | Plant response rating (0 to 100), Wild oat (wild oat; Rate 16 g/ha, POSTEMERGENCE): 30 | Plant response rating (0 to 100), Wild oat (wild oat; Rate 16 g/ha, PREEMERGENCE): 0 | Plant response rating (0 to 100), Rice Japonica (rice; POSTEMERGENCE section, flood test, Rate 1 g/ha): 0 | Plant response rating (0 to 100), Rice Japonica (rice; POSTEMERGENCE section, flood test, Rate 4 g/ha): 10 | Plant response rating (0 to 100), Rice Japonica (rice; Rate 16 g/ha, under POSTEMERGENCE head (flood test species)): 10 | Plant response rating Rice Japonica (rice; flood test species listed under POSTEMERGENCE, 62 g/ha, 0 to 100 scale): 30
